{
  "source": "paper doi:10.1101/2020.07.01.182642v1",
  "about": "(biorxiv, 2020)",
  "conditions_in_all_cases": "binder",
  "key": {"[1]": {"molecular_target": "STK33 (Homo sapiens, UniProt Q9BYT3)"}, "[2]": {"molecular_target": "CAMK1G (Homo sapiens, UniProt Q96NX5)", "sequence (Q96NX5 whole entry)": "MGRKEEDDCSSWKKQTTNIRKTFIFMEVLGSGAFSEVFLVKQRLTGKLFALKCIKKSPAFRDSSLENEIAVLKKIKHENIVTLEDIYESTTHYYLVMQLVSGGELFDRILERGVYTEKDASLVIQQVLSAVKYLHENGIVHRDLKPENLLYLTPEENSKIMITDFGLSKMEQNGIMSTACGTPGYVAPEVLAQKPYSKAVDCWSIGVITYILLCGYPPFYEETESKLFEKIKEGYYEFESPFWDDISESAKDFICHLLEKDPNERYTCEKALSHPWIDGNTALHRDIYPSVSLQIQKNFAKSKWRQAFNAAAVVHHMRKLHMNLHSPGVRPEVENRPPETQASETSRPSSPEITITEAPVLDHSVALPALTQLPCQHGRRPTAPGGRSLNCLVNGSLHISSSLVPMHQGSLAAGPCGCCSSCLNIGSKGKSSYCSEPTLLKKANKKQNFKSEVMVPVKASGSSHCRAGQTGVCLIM"}, "[3]": {"molecular_target": "PKN1 (Homo sapiens, UniProt Q16512)", "sequence (Q16512 whole entry)": "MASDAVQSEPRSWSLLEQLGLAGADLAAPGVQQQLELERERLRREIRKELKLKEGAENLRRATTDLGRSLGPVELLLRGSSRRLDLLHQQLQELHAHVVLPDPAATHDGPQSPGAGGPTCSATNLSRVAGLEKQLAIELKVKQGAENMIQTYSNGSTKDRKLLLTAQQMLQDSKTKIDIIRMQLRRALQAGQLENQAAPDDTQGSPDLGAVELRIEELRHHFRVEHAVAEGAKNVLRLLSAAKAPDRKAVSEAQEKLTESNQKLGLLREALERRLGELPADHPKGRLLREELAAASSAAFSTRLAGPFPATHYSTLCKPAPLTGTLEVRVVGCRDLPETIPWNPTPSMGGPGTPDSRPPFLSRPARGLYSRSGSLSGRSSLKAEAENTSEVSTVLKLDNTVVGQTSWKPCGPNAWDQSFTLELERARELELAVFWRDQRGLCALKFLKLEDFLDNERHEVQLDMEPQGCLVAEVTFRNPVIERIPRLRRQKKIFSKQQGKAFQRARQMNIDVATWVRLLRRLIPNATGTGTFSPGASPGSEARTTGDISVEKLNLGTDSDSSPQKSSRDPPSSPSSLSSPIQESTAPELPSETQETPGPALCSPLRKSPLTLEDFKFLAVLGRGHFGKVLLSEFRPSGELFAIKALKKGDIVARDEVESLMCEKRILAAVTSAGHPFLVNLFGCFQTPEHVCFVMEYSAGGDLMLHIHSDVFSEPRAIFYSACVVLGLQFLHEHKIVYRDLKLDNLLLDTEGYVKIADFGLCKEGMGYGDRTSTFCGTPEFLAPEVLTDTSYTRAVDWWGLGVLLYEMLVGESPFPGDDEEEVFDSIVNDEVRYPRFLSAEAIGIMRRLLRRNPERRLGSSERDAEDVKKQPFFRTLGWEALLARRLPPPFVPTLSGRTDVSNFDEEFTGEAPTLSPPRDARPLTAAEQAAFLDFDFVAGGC"}, "[4]": {"molecular_target": "SRPK3 (Homo sapiens, UniProt Q9UPE1)", "sequence (Q9UPE1 whole entry)": "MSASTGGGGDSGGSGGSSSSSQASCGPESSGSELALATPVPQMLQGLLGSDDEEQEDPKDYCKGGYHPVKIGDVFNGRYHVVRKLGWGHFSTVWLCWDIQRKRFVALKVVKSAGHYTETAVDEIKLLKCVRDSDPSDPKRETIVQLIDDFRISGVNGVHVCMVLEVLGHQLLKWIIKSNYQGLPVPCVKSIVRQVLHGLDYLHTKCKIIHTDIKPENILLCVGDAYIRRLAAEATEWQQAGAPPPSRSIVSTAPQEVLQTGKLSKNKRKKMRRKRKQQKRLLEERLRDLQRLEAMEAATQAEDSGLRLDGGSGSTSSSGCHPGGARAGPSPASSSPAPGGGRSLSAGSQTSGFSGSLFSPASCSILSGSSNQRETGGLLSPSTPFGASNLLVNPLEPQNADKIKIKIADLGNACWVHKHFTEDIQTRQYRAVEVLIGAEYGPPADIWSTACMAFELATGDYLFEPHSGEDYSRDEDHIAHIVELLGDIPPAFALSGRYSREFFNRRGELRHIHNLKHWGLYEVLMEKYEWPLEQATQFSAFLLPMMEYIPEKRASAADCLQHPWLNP"}, "[5]": {"molecular_target": "RPS6KA2 (Homo sapiens, UniProt Q15349)", "sequence (Q15349 whole entry)": "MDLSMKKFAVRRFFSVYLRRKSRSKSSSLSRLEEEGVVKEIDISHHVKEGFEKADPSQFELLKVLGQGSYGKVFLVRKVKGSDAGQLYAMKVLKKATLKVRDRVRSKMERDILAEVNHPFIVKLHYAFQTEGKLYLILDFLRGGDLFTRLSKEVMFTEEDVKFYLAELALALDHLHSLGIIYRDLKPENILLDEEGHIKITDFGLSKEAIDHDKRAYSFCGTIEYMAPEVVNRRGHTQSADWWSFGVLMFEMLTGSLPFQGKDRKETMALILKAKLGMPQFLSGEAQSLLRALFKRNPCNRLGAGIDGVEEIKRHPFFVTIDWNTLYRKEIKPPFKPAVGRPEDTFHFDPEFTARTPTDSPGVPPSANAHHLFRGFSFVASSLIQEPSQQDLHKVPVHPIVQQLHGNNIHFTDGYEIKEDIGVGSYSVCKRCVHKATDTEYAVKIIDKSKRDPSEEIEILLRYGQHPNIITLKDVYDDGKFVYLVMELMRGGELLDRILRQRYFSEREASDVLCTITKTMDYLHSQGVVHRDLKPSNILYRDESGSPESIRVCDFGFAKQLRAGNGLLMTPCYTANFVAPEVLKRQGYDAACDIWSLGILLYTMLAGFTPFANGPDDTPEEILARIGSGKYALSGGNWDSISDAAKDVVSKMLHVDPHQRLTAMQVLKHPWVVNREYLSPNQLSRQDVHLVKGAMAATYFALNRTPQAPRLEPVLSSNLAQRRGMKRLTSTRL"}, "[6]": {"molecular_target": "T1, GAK (Homo sapiens, UniProt O14976)", "T1 sequence (O14976 1-1311)": "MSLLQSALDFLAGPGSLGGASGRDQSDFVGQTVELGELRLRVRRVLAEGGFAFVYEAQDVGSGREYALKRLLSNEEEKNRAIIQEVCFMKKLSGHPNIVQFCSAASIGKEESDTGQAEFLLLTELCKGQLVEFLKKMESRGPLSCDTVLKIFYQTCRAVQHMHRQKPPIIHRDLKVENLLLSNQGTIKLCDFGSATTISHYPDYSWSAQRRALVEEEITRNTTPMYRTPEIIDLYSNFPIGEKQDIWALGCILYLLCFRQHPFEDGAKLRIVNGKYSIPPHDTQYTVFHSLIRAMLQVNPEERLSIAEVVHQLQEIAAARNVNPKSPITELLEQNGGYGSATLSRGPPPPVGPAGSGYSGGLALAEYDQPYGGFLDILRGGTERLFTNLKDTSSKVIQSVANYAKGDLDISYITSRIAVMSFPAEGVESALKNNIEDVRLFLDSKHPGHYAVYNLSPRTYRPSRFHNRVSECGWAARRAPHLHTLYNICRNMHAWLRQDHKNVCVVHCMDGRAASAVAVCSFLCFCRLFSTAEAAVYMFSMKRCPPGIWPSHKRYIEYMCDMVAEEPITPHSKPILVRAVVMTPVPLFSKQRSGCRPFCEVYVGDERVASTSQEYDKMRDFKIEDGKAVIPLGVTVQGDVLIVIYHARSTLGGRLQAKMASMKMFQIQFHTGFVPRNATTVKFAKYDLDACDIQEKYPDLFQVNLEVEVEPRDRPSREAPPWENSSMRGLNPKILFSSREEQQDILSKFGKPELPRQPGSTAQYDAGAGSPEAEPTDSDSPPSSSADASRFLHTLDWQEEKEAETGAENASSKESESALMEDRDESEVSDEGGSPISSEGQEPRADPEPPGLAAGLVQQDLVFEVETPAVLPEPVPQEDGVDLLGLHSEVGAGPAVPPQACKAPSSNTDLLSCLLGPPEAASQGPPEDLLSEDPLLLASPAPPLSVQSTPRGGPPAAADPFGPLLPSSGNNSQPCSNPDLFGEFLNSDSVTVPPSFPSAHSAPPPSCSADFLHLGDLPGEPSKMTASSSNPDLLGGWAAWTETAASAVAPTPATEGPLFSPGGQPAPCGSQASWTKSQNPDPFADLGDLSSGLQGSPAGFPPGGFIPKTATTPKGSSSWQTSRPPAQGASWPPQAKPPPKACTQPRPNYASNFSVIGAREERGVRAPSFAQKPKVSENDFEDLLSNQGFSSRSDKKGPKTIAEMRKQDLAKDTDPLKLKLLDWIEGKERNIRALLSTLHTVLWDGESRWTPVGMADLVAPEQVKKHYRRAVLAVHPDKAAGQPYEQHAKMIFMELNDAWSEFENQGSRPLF"}, "[7]": {"molecular_target": "T2, BMX (Homo sapiens, UniProt P51813)", "T2 sequence (P51813 1-675)": "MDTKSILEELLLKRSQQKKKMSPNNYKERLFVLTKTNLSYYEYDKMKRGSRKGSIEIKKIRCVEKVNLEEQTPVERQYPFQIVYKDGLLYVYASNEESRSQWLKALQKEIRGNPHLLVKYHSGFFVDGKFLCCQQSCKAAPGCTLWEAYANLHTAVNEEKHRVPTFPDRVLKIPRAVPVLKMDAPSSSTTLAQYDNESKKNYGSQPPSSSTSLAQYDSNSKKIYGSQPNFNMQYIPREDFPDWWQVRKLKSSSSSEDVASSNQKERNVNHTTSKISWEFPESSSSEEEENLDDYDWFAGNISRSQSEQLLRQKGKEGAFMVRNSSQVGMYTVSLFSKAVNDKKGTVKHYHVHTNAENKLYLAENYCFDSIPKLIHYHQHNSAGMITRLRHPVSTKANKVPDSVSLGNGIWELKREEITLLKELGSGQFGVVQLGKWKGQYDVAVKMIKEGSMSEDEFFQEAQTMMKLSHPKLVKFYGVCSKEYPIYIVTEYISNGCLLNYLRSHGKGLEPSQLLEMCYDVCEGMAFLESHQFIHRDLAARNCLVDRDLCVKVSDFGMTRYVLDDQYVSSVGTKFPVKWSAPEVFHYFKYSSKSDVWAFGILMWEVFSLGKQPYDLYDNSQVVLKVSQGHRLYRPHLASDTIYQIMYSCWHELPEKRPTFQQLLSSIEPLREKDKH"}, "[8]": {"molecular_target": "ZAK (Homo sapiens, UniProt Q9NYL2)"}, "[9]": {"molecular_target": "CHEK2 (Homo sapiens, UniProt O96017)", "sequence (O96017 whole entry)": "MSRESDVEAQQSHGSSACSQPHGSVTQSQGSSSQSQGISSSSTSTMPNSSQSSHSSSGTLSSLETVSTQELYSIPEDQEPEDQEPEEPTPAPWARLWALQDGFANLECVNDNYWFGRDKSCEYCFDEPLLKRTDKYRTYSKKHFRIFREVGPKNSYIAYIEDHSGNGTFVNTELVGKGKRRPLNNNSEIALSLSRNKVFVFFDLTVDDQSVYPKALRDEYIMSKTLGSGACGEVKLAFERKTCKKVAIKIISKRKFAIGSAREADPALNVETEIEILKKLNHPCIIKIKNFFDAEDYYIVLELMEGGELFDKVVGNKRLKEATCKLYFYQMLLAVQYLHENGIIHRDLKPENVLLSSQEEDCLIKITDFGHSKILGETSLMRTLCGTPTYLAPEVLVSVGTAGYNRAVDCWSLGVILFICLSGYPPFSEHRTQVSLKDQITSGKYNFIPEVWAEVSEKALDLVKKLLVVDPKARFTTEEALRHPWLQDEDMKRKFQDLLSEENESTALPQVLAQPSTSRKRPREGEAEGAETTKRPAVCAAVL"}, "[10]": {"molecular_target": "PIM3 (Homo sapiens, UniProt Q86V86)"}, "[11]": {"molecular_target": "CLK2 (Homo sapiens, UniProt P49760)"}, "[12]": {"molecular_target": "CDK8 (Homo sapiens, UniProt P49336)", "sequence (P49336 whole entry)": "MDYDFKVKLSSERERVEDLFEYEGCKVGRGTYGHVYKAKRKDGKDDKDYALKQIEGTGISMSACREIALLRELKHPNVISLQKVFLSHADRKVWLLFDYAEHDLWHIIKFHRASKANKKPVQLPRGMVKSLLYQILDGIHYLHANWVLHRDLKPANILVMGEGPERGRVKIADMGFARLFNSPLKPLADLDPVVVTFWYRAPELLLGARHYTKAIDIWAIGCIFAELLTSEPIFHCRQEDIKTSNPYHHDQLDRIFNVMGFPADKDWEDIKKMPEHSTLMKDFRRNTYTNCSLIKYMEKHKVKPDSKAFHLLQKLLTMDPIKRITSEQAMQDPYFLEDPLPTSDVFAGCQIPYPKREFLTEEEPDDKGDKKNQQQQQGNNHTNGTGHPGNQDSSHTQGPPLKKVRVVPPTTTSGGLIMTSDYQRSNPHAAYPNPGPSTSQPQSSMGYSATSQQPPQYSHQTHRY"}, "[13]": {"molecular_target": "LYN (Homo sapiens, UniProt P07948)", "sequence (P07948 whole entry)": "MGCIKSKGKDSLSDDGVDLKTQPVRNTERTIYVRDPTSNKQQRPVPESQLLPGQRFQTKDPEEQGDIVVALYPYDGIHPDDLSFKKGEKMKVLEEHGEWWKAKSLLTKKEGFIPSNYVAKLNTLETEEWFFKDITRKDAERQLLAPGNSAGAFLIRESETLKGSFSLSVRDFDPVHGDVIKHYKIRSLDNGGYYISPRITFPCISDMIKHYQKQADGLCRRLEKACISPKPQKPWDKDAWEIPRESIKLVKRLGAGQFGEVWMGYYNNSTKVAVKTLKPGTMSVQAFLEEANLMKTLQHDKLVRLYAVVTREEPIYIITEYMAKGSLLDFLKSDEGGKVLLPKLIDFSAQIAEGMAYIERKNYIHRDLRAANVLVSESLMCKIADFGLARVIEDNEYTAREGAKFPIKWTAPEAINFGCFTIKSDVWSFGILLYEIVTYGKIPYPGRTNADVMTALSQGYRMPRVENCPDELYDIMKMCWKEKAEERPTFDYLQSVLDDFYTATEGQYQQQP"}},
  "data": [
    {"smiles": "CCN1/C(=C/C(C)=O)Sc2ccc(OC)cc21", "note": "[compound 2, TG003]", "values": [
      {"measurement": "ΔTm 2", "setting": "[1]", "result": 0.6, "unit": "°C"},
      {"measurement": "ΔTm inhibitor 2", "setting": "[2]", "result": -0.1, "unit": "°C"},
      {"measurement": "ΔTm inhibitor 2", "setting": "[3]", "result": -0.5, "unit": "°C"},
      {"measurement": "ΔTm inhibitor 2", "setting": "[4]", "result": 0.0, "unit": "°C"},
      {"measurement": "ΔTm inhibitor 2", "setting": "[5]", "result": 0.4, "unit": "°C"},
      {"measurement": "ΔTm inhibitor 2", "setting": "[6]", "result": 0.2, "unit": "°C"},
      {"measurement": "ΔTm inhibitor 2", "setting": "[7]", "result": -0.1, "unit": "°C"},
      {"measurement": "ΔTm inhibitor 2", "setting": "[8]", "result": -0.3, "unit": "°C"},
      {"measurement": "ΔTm inhibitor 2", "setting": "[9]", "result": 0.1, "unit": "°C"},
      {"measurement": "ΔTm inhibitor 2", "setting": "[10]", "result": 4.9, "unit": "°C"},
      {"measurement": "ΔTm inhibitor 2", "setting": "[11]", "result": 5.0, "unit": "°C"},
      {"measurement": "ΔTm inhibitor 2", "setting": "[12]", "result": 0.1, "unit": "°C"},
      {"measurement": "ΔTm inhibitor 2", "setting": "[13]", "result": 0.1, "unit": "°C"}
    ]},
    {"smiles": "CC(=O)c1cccc(-c2cnc3ccc(NCC4CC4)nn23)c1", "note": "[compound 1, K00135]", "values": [
      {"measurement": "ΔTm 1", "setting": "[1]", "result": 3.1, "unit": "°C"},
      {"measurement": "ΔTm inhibitor 1", "setting": "[2]", "result": 0.6, "unit": "°C"},
      {"measurement": "ΔTm inhibitor 1", "setting": "[3]", "result": 1.7, "unit": "°C"},
      {"measurement": "ΔTm inhibitor 1", "setting": "[4]", "result": 0.4, "unit": "°C"},
      {"measurement": "ΔTm inhibitor 1", "setting": "[5]", "result": 2.7, "unit": "°C"},
      {"measurement": "ΔTm inhibitor 1", "setting": "[6]", "result": 7.3, "unit": "°C"},
      {"measurement": "ΔTm inhibitor 1", "setting": "[7]", "result": 0.4, "unit": "°C"},
      {"measurement": "ΔTm inhibitor 1", "setting": "[8]", "result": 1.4, "unit": "°C"},
      {"measurement": "ΔTm inhibitor 1", "setting": "[9]", "result": 0.8, "unit": "°C"},
      {"measurement": "ΔTm inhibitor 1", "setting": "[10]", "result": 6.8, "unit": "°C"},
      {"measurement": "ΔTm inhibitor 1", "setting": "[11]", "result": 5.5, "unit": "°C"},
      {"measurement": "ΔTm inhibitor 1", "setting": "[12]", "result": 2.7, "unit": "°C"},
      {"measurement": "ΔTm inhibitor 1", "setting": "[13]", "result": 2.4, "unit": "°C"}
    ]},
    {"smiles": "Nc1nccc(-c2ccc3noc(-c4ccc(Cl)cc4)c3c2)n1", "note": "[compound 4, K00972]", "values": [
      {"measurement": "ΔTm 4", "setting": "[1]", "result": 2.4, "unit": "°C"},
      {"measurement": "ΔTm inhibitor 4", "setting": "[2]", "result": 0.3, "unit": "°C"},
      {"measurement": "ΔTm inhibitor 4", "setting": "[3]", "result": 0.4, "unit": "°C"},
      {"measurement": "ΔTm inhibitor 4", "setting": "[4]", "result": 0.2, "unit": "°C"},
      {"measurement": "ΔTm inhibitor 4", "setting": "[5]", "result": 1.0, "unit": "°C"},
      {"measurement": "ΔTm inhibitor 4", "setting": "[6]", "result": 3.3, "unit": "°C"},
      {"measurement": "ΔTm inhibitor 4", "setting": "[7]", "result": 0.4, "unit": "°C"},
      {"measurement": "ΔTm inhibitor 4", "setting": "[8]", "result": 0.3, "unit": "°C"},
      {"measurement": "ΔTm inhibitor 4", "setting": "[9]", "result": 0.5, "unit": "°C"},
      {"measurement": "ΔTm inhibitor 4", "setting": "[10]", "result": 5.4, "unit": "°C"},
      {"measurement": "ΔTm inhibitor 4", "setting": "[11]", "result": 7.2, "unit": "°C"},
      {"measurement": "ΔTm inhibitor 4", "setting": "[12]", "result": 1.9, "unit": "°C"},
      {"measurement": "ΔTm inhibitor 4", "setting": "[13]", "result": 0.3, "unit": "°C"}
    ]}
  ]
}
